Results taken from PubChem BioAssay AID1645863 (Buhrlage Lab, Dana-Farber Cancer Institute and Novartis …, 2021).
pIC50: −log10 of the molar value. Active and inactive are the calls of the source. No rule for the calls is given here.

target: Ubiquitin carboxyl-terminal hydrolase 10 (Homo sapiens) (UniProt Q14694); assay: ubiquitin-specific protease 10 DUB inhibitors, concentration-effect, biochemical, verification of primary screen actives (AID 1645863); settings: USP10 deubiquitinase enzymatic assay;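 also: potency values describe inhibition of USP10 cleavage of a fluorogenic ubiquitin substrate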
Sequence (Q14694 whole entry, looked up): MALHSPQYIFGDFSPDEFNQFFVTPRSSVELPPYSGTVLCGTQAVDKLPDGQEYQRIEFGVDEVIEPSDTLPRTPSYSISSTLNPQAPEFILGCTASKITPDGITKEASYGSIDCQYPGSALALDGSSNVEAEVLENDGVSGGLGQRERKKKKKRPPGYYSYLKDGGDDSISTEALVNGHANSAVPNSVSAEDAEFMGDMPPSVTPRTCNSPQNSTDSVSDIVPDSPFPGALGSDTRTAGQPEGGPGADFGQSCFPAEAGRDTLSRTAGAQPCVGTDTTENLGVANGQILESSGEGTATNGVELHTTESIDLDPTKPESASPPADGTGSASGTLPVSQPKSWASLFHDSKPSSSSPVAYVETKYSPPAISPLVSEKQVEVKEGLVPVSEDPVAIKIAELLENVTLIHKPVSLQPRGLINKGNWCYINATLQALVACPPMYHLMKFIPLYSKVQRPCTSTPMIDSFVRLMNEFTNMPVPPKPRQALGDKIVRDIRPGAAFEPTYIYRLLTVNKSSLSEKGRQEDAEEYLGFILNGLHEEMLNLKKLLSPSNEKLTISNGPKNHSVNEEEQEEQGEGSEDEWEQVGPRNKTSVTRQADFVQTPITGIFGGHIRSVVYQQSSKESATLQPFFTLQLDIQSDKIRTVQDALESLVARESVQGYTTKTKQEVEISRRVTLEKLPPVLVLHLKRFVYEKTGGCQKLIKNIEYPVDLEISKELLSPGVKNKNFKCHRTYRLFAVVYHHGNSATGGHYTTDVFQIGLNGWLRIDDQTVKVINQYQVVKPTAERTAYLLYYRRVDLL

Row | SMILES | IC50 | pIC50
1 | COc1ccc(-c2c(NC(=O)C3COc4ccccc4O3)n[nH]c2C)cc1OC (centres undefined) | > 40 µM (inactive) | –
2 | COc1cc(NS(=O)(=O)c2ccc(NC(=O)COc3ccc(C)cc3Br)cc2)nc(OC)n1 | – | 4.41
3 | COc1cc(-c2ccccc2)c(O)c(O)c1-c1ccccc1 | – | 4.85
4 | Cc1cccc(C(=O)Nc2cccc(SC(C(=O)Nc3ccc(O)c(C(=O)O)c3)c3ccccc3)c2)c1 (centres undefined) | > 40 µM (inactive) | –
5 | Cc1ccc(Nc2nc(Nc3cccc(F)c3)nc3nccnc23)c(C)c1 | > 40 µM (inactive) | –
6 | O=C(c1ccc(Cl)cc1)N(c1ccccn1)C1CCCCC1 | > 40 µM (inactive) | –
7 | O=C(/C=C/c1ccc(Br)cc1)Nc1cnc2ccccc2c1 | – | 4.40
8 | CCc1ccc(NC(=O)c2cc(C(F)(F)F)n(C)n2)cc1 | > 40 µM (inactive) | –
9 | CCCCCCC1CCC(O)CC(O)CC(O)CC(O)CC(O)CC(O)/C(C)=C/C=C\C=C/C=C/C=C/[C@H](O)[C@@H](C)OC1=O (some centres undefined) | > 40 µM (inactive) | –
10 | COc1ccc(-c2noc(C3(c4ccc(F)cc4)CCOCC3)n2)cc1 | > 40 µM (inactive) | –
11 | O=C(Cn1c(COc2ccccc2)nc2ccccc21)Nc1ccc(N2CCOCC2)cc1 | > 40 µM (inactive) | –
12 | Cc1cccc(NC(=O)Cn2c(=O)n(-c3cc(C)cc(C)c3)c(=O)c3sccc32)c1 | > 40 µM (inactive) | –
13 | O=C(c1ccccn1)N1CCC2(CC1)CC1(CO2)Nc2ccccc2-n2cccc21 (centres undefined) | > 40 µM (inactive) | –
14 | COc1ccc(/C=C/C(=O)Nc2cccc(S(=O)(=O)Nc3ccccc3Cl)c2)c(OC)c1 | – | 4.82
15 | Cc1nnc(NC(=O)C2CC(=O)N(CCc3ccc(F)cc3)C2)s1 (centres undefined) | > 40 µM (inactive) | –
16 | O=C(Cn1c(=O)[nH]c2c(-c3ccc(F)cc3)c[nH]c2c1=O)NCc1ccc(F)cc1 | > 40 µM (inactive) | –
17 | CCc1ccc([C@@H]2c3c(C)nn(C)c3NC(=O)[C@H]2NC(=O)c2ccc(OC)c(OC)c2)cc1 | > 40 µM (inactive) | –
18 | CCOC(=O)c1cc2c(ccn2C)n1CC(=O)NC1CC1 | > 40 µM (inactive) | –
19 | O=C(Nc1ccc2c(c1)OCCO2)C1CCC(Cn2cnc3ccccc3c2=O)CC1 (centres undefined) | > 40 µM (inactive) | –
20 | O=C1CC(c2cc3c(cc2Br)OCO3)c2cc3c(cc2N1)OCCO3 (centres undefined) | > 40 µM (inactive) | –
21 | COC(=O)Nc1cccn(Cc2c(Cl)cccc2Cl)c1=O | > 40 µM (inactive) | –
22 | COc1ccc(NC(=O)CC(=O)c2ccc([N+](=O)[O-])cc2)cc1S(=O)(=O)Nc1ccc(Cl)cc1 | – | 4.59
23 | Cc1ccc(CNC(=O)Cn2c(=O)n(CCCC(=O)NCc3ccc(F)cc3)c(=O)c3ccccc32)cc1 | – | 4.76
24 | COc1ccc(NC(=O)Cn2c(=O)n(CCC(=O)NCc3ccccc3)c(=O)c3sccc32)cc1Cl | > 40 µM (inactive) | –
25 | COc1ccc(C)cc1NC(=O)CN1C(=O)C2CCCC2=Nc2ccccc21 (centres undefined) | > 40 µM (inactive) | –
26 | COc1ccc(-c2cc3c(=O)n(CC(=O)Nc4ccccc4C)ccn3n2)cc1 | > 40 µM (inactive) | –
27 | O=C(NCCc1nc2ccccc2n1CCCOc1ccccc1Cl)C1CCCCC1 | – | 4.48
28 | COc1ccccc1NC(=O)c1nc(-c2cn(-c3cccc(F)c3)nn2)no1 | – | 4.68
29 | O=C(CCCCn1c(=O)[nH]c2ccccc2c1=O)Nc1cccc(Cl)c1 | > 40 µM (inactive) | –
